{"source": "patent US20250049914A1", "about": "“STEROID ACID-PEPTIDE BASED INTRACELLULAR CARGO DELIVERY” (DEFENCE THERAPEUTICS INC., priority 2021, published 2025)", "key": {"[1]": {"system": "BMDCs", "experiment": "Antigen-presentation assay using the B3Z reporter system, BMDCs", "assay_type": "cell-based, mouse", "settings": "for antigen cross-presentation of OVA (B3Z response) vs OVA alone / antigen-presentation activity of cholic acid-NLS peptide conjugates (B3Z response): BMDCs; for antigen cross-presentation of OVA (B3Z response) vs OVA alone: OVA mixed with bile acid/peptide/conjugate, molar ratio 4:1; for antigen-presentation activity of cholic acid-NLS peptide conjugates (B3Z response): OVA admixed, best conjugate: antigen ratio", "description": "Mouse bone marrow derived DCs (BMDCs) were generated by flushing the whole marrow from mouse femurs using RPMI™ 1640 supplemented with 10% fetal bovine serum (FBS), 50 U/mL Penicillin-Streptomycin, 2 mM L-glutamine, 10 mM HEPES, 1% MEM Non-essential Amino Acids, 1 mM Sodium Pyruvate, 0.5 mM beta-mercaptoethanol. Following red blood cell lysis, cells were then cultured in media supplemented with 50 ng/mL murine recombinant GM-CSF. The media was changed on days 2, 4, 6 and 8. On day 9, the media was replaced to include recombinant murine GM-CSF and LPS from Escherichia coli 0111 (1 ng/mL) to stimulate DC maturation. Mature DCs were assessed by flow cytometry for their surface expression of CD3, CD19, NK1.1, CD11c, CD80, CD86, and I-A^b.\n(§1) Various bile acid-NLS conjugates were screened using the B3Z reporter system. The B3Z cell line is a T-cell hybridoma specific for the H2-K^b-[…] complex. Once activated via its TCR, the LacZ reporter gene (under the NFAT promoter control) is expressed. Briefly, 1.5×10^5 BMDCs or 2.5×10^5 MSCs were co-cultured with 5×10^4 B3Z cells treated with the mixing conditions of ovalbumin (OVA) and bile acid-NLS conjugates for overnight at 37° C. with 5% CO2. The following day, all cells were washed twice with PBS (pH 7.4), and the cell pellets were lysed by adding 100 μL of a lysis buffer containing 0.15 mM chlorophenol red-beta-D-galactopyranoside (CPRG) substrate (Calbiochem, La Jolla, CA), 0.125% NP40 (EMD Sciences, La Jolla, CA), 9 mM MgCl2 (Aldrich, USA) and 100 mM 2-mercaptoethanol in PBS. After a 5- or 24-h incubation at 37° C., absorbance was taken at 570 nm with 636 nm as the reference wavelength. For these experiments, OVA was re-suspended in PBS (pH 7.3) at 5-10 mg/mL. The different bile acid-NLS conjugates were re-suspended in H2O at 10 mg/mL. Bile acid-NLS conjugate: antigen mixtures were prepared at different molar ratios according to Table 1.\nVariants of CA-SV40NLS were synthesized in order to explore structure-activity relationships relating to the antigen cross-presentation enhancing activity observed for this conjugate, and therefore a measure of antigen/cargo delivery. More particularly, conjugates having different bile acids conjugated to the SV40NLS peptide (SEQ ID NO: 1) were synthesized and their effect on antigen presentation was evaluated by using the B3Z reporter system with the OVA antigen as described in Example 1. […] In FIG. 11, no increase in antigen cross-presentation in BMDCs over the antigen alone (“OVA”) was observed when OVA was mixed with either unconjugated cholic acid (“CA”) or SV40NLS peptide (“SV40NLS”), although lower sensitivity of the B3Z reporter system as compared to the OT-I CD8 T cell-based assay may have been a factor.\n(§2) Further variants of CA-SV40NLS were synthesized in which the SV40NLS peptide was replaced with peptides comprising other NLS's (Table 5) and the antigen presentation activities of the CA-NLS peptide conjugates were evaluated using the B3Z reporter system as described in Example 1. The following conjugate: antigen molar ratios were tested for each conjugate: 2:1, 4:1, 8:1, 12:1 and 22:1. The results in FIGS. 12-15 compare the antigen presentation activities of different conjugates at the conjugate: antigen ratio that yielded the highest B3Z response (OD570) for that conjugate."}, "[2]": {"system": "cross-presenting mesenchymal stromal cell line (cpMSC)", "experiment": "Antigen-presentation assay using the B3Z reporter system, cross-presenting MSC line", "assay_type": "cell-based", "settings": "cpMSCs, OVA admixed, vs OVA alone or OVA mixed with CA-SV40NLS", "description": "as §1, §2"}, "[3]": {"system": "cpMSCs", "experiment": "OVA-AF647 internalization in cpMSCs, flow cytometry", "assay_type": "cell-based", "settings": "various molar ratios", "description": "For this experiment, a cross-presenting mesenchymal stromal cell line (cpMSC) was used as the antigen presenting cells, which were pulsed with the OVA cargo labelled with Alexa Fluor 647 (i.e., OVA^647)^TM. OVA^647 fluorescence was measured by flow cytometry. Different ratios of CA (NLS1 RPS17 [FIG. 16A]; NLS3 RPS17 [FIG. 16B]; and PQBP-1 [FIG. 16C] to antigen (CA: OVA=22:1, 12:1, 8:1, 4:1, and 2:1) were tested (hnRNPA1 M9 NLS at 2:1).\n(§3) To further dissect the effect of bile acid peptide conjugates on antigen presentation, antigen internalization and processing were evaluated. cpMSCs were pulsed with OVA-labelled with AF647 in the presence of various molar ratios of different bile acid peptide conjugates, NLS1-RPS17 [FIG. 16A]; NLS3 RPS17 [FIG. 16B]; PQBP-1 [FIG. 16C]; and hnRNPA1 M9 NLS [FIG. 6]) and fluorescence was assessed by flow cytometry. […] OVA processing was assessed by pulsing cpMSCs with DQ™-Ovalbumin (OVA-DQ) in the presence of the same bile acid peptide conjugates as in FIGS. 6 and 16."}, "[4]": {"system": "cpMSCs", "experiment": "OVA-DQ processing in cpMSCs, flow cytometry", "assay_type": "cell-based", "settings": "various molar ratios", "description": "For this experiment, a cross-presenting mesenchymal stromal cell line (cpMSC) was used as the antigen presenting cells, which were pulsed with DQ™ Ovalbumin (i.e., OVADQ). OVADQ fluorescence was measured by flow cytometry. Different ratios of CA (NLS1 RSP17 [FIG. 17A]; NLS3 RPS17 [FIG. 17B]; and PQBP-1 [FIG. 17C] to antigen (CA: OVA=22:1, 12:1, 8:1, 4:1, and 2:1) were tested (hnRNPA1 M9 NLS at 2:1).\nas §3"}, "[5]": {"system": "WT MSCs", "experiment": "Antigen cross-presentation assay on wild-type MSCs with B3Z cells", "assay_type": "cell-based, mouse", "settings": "WT MSCs treated with CA-hnRNPA1 and OVA", "description": "In order to generate Bone marrow (BM)-derived mouse MSCs, the femurs of 6-8-week-old female Balb/c or C57BL/6 mice were isolated and flushed with Alpha Modification of Eagle's Medium (AMEM) supplemented with 10% FBS and 50 U/mL Penicillin-Streptomycin in a 10 cm cell culture dish, then incubated at 37° C. Two days later, non-adherent cells were removed and the media replaced every 3 to 4 days until plastic-adherent cells reached 80% confluency. The generated cells were detached using 0.05% trypsin and expanded until a uniform MSC population was obtained. The generated MSCs were validated for their innate phenotype by flow-cytometry for the expression of CD44, CD45, CD73, and CD90. The cells were frozen in liquid nitrogen until use.\nTo assess cross-presentation assay, 25×10^3 cells MSCs were seeded per well in 24-well plate then pulsed with steroid acid peptide-conjugated for 6 h admixed with OVA. At the end of the pulsing period, the cells were washed to remove excess antigen then 5×10^4 B3Z cells. The cells were incubated for 17-19 hours prior to their lysis and incubation for another 4-6 hours at 37° C. with a CPRG solution. The optical density signal was detected at wavelength 570 using a SynergyH1™ microplate reader (Biotek, Winooski, VT, United States).\nTo determine whether a similar effect occurs in wild type (WT) (i.e., non-engineered) MSCs, BM-derived MSCs (Example 1) were used instead in the same cross presentation assay with B3Z responder cells."}}, "note": "Where no end group is shown, it is not given here."}
{"molecule": "SV40NLS: unconjugated NLS peptide CGYGPKKKRKVGG (SEQ ID NO: 1) (not fully specified) [reference compound]", "values": [{"measurement": "antigen cross-presentation of OVA (B3Z response) vs OVA alone", "setting": "[1]", "result": "no increase"}]}
{"molecule": "NLS2-RG Domain RPS17: cholic acid conjugated to NLS2-RG Domain RPS17 peptide (SEQ ID NO: 8) (CNKRVCEEIAIIPSKKLRNKGSGRIQRGPVRGIS; cysteine pairing not given here; also: cholic acid conjugate, site not given here)", "values": [{"measurement": "antigen-presentation activity of cholic acid-NLS peptide conjugates (B3Z response)", "setting": "[1]", "result": "high antigen presentation activity"}]}
{"molecule": "C[C@H](CCC(=O)O)[C@H]1CC[C@H]2[C@@H]3[C@H](O)C[C@@H]4C[C@H](O)CC[C@]4(C)[C@H]3C[C@H](O)[C@]12C", "note": "[CA, cholic acid, reference compound]", "values": [{"measurement": "antigen cross-presentation of OVA (B3Z response) vs OVA alone", "setting": "[1]", "result": "no increase"}]}
{"molecule": "PQBP-1 NLS: cholic acid conjugated to PQBP-1 NLS peptide CADREEGKERRHHRREELAPY (SEQ ID NO: 7) (not fully specified (N-terminus); also: cholic acid conjugate, site not given here)", "values": [{"measurement": "antigen-presentation activity of cholic acid-NLS peptide conjugates (B3Z response)", "setting": "[1]", "result": "strikingly high antigen-presentation activity"}, {"measurement": "antigen-presentation activity of cholic acid-NLS peptide conjugates (B3Z response)", "setting": "[2]", "result": "strikingly high antigen-presentation activity"}, {"measurement": "OVA internalization (OVA-AF647 fluorescence)", "setting": "[3]", "result": "enhance OVA internalization"}, {"measurement": "OVA processing (OVA-DQ fluorescence)", "setting": "[4]", "result": "enhance OVA processing"}]}
{"molecule": "C[C@H](CCC(=O)NCC(=O)O)[C@H]1CC[C@H]2[C@@H]3[C@@H](O)C[C@@H]4C[C@H](O)CC[C@]4(C)[C@H]3CC[C@]12C", "note": "[GUDCA, glycoursodeoxycholic acid, reference compound]", "values": [{"measurement": "immunogen enhancer activity across GUDCA: OVA molar ratios", "setting": "[1]; 2:1, 4:1, 8:1, 12:1 and 22:1", "result": "observed at all GUDCA: OVA molar ratios tested"}, {"measurement": "increase in B3Z response (OD570) over OVA alone", "setting": "[1]; OVA mixed with unconjugated GUDCA, 22:1, data not shown", "result": "≤ 30", "unit": "%"}]}
{"molecule": "GCDCA: glycochenodeoxycholic acid conjugated to the SV40NLS peptide (SEQ ID NO: 1) ({Glycochenodeoxycholic acid}-CGYGPKKKRKVGG; also: glycochenodeoxycholic acid conjugate, MOD_RES 1 Cholic Acid (ChAc))", "values": [{"measurement": "antigen cross-presentation of OVA (B3Z response) vs OVA alone", "setting": "[1]", "result": "comparable or higher"}]}
{"molecule": "Cc1c(C)c2c(c(C)c1O)CC[C@@](C)(CCC[C@H](C)CCC[C@H](C)CCCC(C)C)O2", "note": "[α-tocopherol]", "values": [{"measurement": "effect of inhibitor on the antigen cross-presentation capacity of CA-hnRNPA1", "setting": "[5]", "result": "neutralization"}]}
{"molecule": "c1ccc2c(c1)[I+]c1ccccc1-2", "note": "[DPI, diphenyleneiodonium chloride]", "values": [{"measurement": "effect of inhibitor on the antigen cross-presentation capacity of CA-hnRNPA1", "setting": "[5]", "result": "neutralization"}]}
{"molecule": "NLS3-RPS17: cholic acid conjugated to NLS3 RPS17 peptide SKKLRNKIAGYVTHLMKRI (SEQ ID NO: 11)", "values": [{"measurement": "antigen-presentation activity of cholic acid-NLS peptide conjugates (B3Z response)", "setting": "[1]", "result": "high antigen presentation activity"}, {"measurement": "OVA internalization (OVA-AF647 fluorescence)", "setting": "[3]", "result": "enhance OVA internalization"}, {"measurement": "OVA processing (OVA-DQ fluorescence)", "setting": "[4]", "result": "enhance OVA processing"}]}
{"molecule": "CC(=O)N[C@@H](CS)C(=O)O", "note": "[N-acetylcysteine]", "values": [{"measurement": "effect of inhibitor on the antigen cross-presentation capacity of CA-hnRNPA1", "setting": "[5]", "result": "neutralization"}]}
{"molecule": "GWG-SV40NLS: cholic acid conjugated to peptide CGWWGYGPKKKRKVGGWWG (SEQ ID NO: 3) (not fully specified (N-terminus); also: cholic acid conjugate, site not given here)", "values": [{"measurement": "antigen-presentation activity of cholic acid-NLS peptide conjugates (B3Z response)", "setting": "[1]", "result": "higher antigen-presentation activity than SV40NLS"}, {"measurement": "antigen-presentation activity of cholic acid-NLS peptide conjugates (B3Z response)", "setting": "[2]", "result": "strikingly high antigen-presentation activity"}]}
{"molecule": "CC(=O)c1ccc2c(c1)Nc1ccccc1S2", "note": "[ML171]", "values": [{"measurement": "effect of inhibitor on the antigen cross-presentation capacity of CA-hnRNPA1", "setting": "[5]", "result": "neutralization"}]}
{"molecule": "UDCA: ursodeoxycholic acid conjugated to the SV40NLS peptide (SEQ ID NO: 1) (CGYGPKKKRKVGG; not fully specified (N-terminus); also: ursodeoxycholic acid conjugate, site not given here)", "values": [{"measurement": "antigen cross-presentation of OVA (B3Z response) vs OVA alone", "setting": "[1]", "result": "comparable or higher"}]}
{"molecule": "cMyc NLS: cholic acid conjugated to cMyc NLS peptide CGYGPAAKRVKLDGG (SEQ ID NO: 12) (not fully specified (N-terminus); also: cholic acid conjugate, site not given here)", "values": [{"measurement": "antigen-presentation activity of cholic acid-NLS peptide conjugates (B3Z response)", "setting": "[1]", "result": "high antigen presentation activity"}]}
{"molecule": "CC1(C)CC(NC(=O)C[P+](c2ccccc2)(c2ccccc2)c2ccccc2)CC(C)(C)N1[O]", "note": "[MitoTempo™]", "values": [{"measurement": "effect of inhibitor on the antigen cross-presentation capacity of CA-hnRNPA1", "setting": "[5]", "result": "did not neutralize"}]}
